Source: patent publication US9957264B2 (Merck Sharp & Dohme Corp., priority 2013, dated 2018)

Columns and labels:
[1] = target: JAK1 (recombinant purified GST-tagged catalytic domain) (Homo sapiens (Human), UniProt P23458); assay: Jak Biochemical HTRF Assay (JAK1); conditions: [ATP] 31.8 μM
Procedure, shortened: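 Phosphorylation of a common biotinylated peptide by each catalytic domain is measured by HTRF. The ATP-started reaction runs 120 min at room temperature before EDTA quench and detection.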

[2] = target: JAK2 (recombinant purified GST-tagged catalytic domain) (Homo sapiens (Human), UniProt O60674); assay: Jak Biochemical HTRF Assay (JAK2); conditions: [ATP] 8.5 μM
JAK2 (recombinant purified GST-tagged catalytic domain), sequence (O60674 849-1124): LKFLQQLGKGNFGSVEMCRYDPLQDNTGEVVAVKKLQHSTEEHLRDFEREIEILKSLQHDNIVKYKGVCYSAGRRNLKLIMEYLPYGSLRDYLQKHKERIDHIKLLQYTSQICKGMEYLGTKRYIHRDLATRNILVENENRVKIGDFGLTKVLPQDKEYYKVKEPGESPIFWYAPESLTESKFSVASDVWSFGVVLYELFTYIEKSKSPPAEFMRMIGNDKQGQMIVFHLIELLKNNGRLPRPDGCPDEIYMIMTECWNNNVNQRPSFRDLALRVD

JAK1 (recombinant purified GST-tagged catalytic domain), sequence (P23458 875-1153): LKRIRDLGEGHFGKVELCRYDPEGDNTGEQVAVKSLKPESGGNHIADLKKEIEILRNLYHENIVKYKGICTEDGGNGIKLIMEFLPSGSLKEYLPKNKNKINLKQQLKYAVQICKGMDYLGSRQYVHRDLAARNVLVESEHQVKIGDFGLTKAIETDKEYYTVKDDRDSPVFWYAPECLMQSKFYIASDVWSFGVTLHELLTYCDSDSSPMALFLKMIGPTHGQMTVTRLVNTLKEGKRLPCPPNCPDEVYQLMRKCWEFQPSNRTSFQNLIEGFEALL

Row | Structure (SMILES) | IC50 [1] | IC50 [2]
1 | CC(C)(C)S(=O)(=O)c1ccc(Nc2nn(C3(CC#N)CCCC3)c3cc[nH]c(=O)c23)cc1 [Example 5-122, 2-(1-(3-((4-(tert-butylsulfonyl)phenyl)amino)-4-oxo-4,5-dihydro-1H-pyrazolo[4,3-c]pyridin-1-yl)cyclopentyl)acetonitrile] | 0.22 nM | 0.48 nM
2 | CN(C)S(=O)(=O)c1ccc(Nc2nn(C3(CC#N)CCCC3)c3cc[nH]c(=O)c23)cc1 [Example 5-123] | 0.23 nM | 0.46 nM
3 | N#CCC1(n2nc(Nc3ccc(C#N)cc3)c3c(=O)[nH]ccc32)CCCC1 [Example 5-124, 4-((1-(1-(cyanomethyl)cyclopentyl)-4-oxo-4,5-dihydro-1H-pyrazolo[4,3-c]pyridin-3-yl)amino) benzonitrile] | 0.58 nM | 3.69 nM
4 | N#CCC1(n2nc(Nc3ccc4c(c3)COC4=O)c3c(=O)[nH]ccc32)CCCC1 [Example 5-125, 2-(1-(4-oxo-3-((1-oxo-1,3-dihydroisobenzofuran-5-yl)amino)-4,5-dihydro-1H-pyrazolo[4,3-c]pyridin-1-yl)cyclopentyl)acetonitrile] | 0.27 nM | 2.71 nM
5 | CC(C)(C)OC(=O)c1ccc(Nc2nn(C3(CC#N)CCCC3)c3cc[nH]c(=O)c23)cc1 [Example 5-127, tert-butyl 4-((1-(1-(cyanomethyl)cyclopentyl)-4-oxo-4,5-dihydro-1H-pyrazolo[4,3-c]pyidin-3-yl)amino)benzoate] | 4.76 nM | 30.5 nM
6 | CNC(=O)c1ccc(Nc2nn(C3(CC#N)CCCC3)c3cc[nH]c(=O)c23)cc1 [Example 5-128, 4-((1-(1-(cyanomethyl)cyclopentyl)-4-oxo-4,5-dihydro-1H-pyrazolo[4,3-c]pyridin-3-yl)amino)-N-methylbenzamide.] | 0.22 nM | 2.24 nM
7 | CC(C)N1Cc2cc(Nc3nn(C4(CC#N)CCCC4)c4cc[nH]c(=O)c34)ccc2C1=O [Example 5-129, 2-(1-(3-((2-isopropyl-1-oxoisoindolin-5-yl)amino)-4-oxo-4,5-dihydro-1H-pyrazolo[4,3-c]pyridin-1-yl)cyclopentyl)acetonitrile] | 2.07 nM | 3.54 nM
8 | CNS(=O)(=O)c1ccc(Nc2nn(C3(CC#N)CCCC3)c3cc[nH]c(=O)c23)cc1 [Example 5-131, 4-((1-(1-(cyanomethyl)cyclopentyl)-4-oxo-4,5-dihydro-1H-pyrazolo[4,3-c]pyridin-3-yl)amino)-N-methylbenzenesulfonamide] | 0.25 nM | 0.98 nM
9 | N#CCC1(n2nc(Nc3ccc(S(=O)(=O)N4CCC4)cc3)c3c(=O)[nH]ccc32)CCCC1 [Example 5-132, 2-(1-(3-((4-(azetidin-1-ylsulfonyl)phenyl)amino)-4-oxo-4,5-dihydro-1H-pyrazolo[4,3-c]pyridin-1-yl)cyclopentyl)acetonitrile] | 0.39 nM | 0.68 nM
10 | CCS(=O)(=O)c1ccc(Nc2nn(C3(CC#N)CCCC3)c3cc[nH]c(=O)c23)cc1 [Example 5-133, 2-(1-(3-((4-(ethylsulfonyl)phenyl)amino)-4-oxo-4,5-dihydro-1H-pyrazolo[4,3-c]pyridin-1-yl)cyclopentyl) acetonitrile] | 0.44 nM | 1.38 nM
11 | CN(C(C)(C)C)S(=O)(=O)c1ccc(Nc2nn(C3(CC#N)CCCC3)c3cc[nH]c(=O)c23)cc1 [Example 5-134, N-(tert-butyl)-4-((1-(1-(cyanomethyl)cyclopentyl)-4-oxo-4,5-dihydro-1H-pyrazolo[4,3-c]pyridin-3-yl)amino)-N-methylbenzene sulfonamide] | 0.7 nM | 1.07 nM
12 | CCN(C(C)(C)C)S(=O)(=O)c1ccc(Nc2nn(C3(CC#N)CCCC3)c3cc[nH]c(=O)c23)cc1 [Example 5-135, N-(tert-butyl)-4-((1-(1-(cyanomethyl)cyclopentyl)-4-oxo-4,5-dihydro-1H-pyrazolo[4,3-c]pyridin-3-yl)amino)-N-ethylbenzene sulfonamide] | 0.98 nM | 1.53 nM
